Assays:
[1] = Absorption at 340nm of NAD or NADP dissolved in aqueous strong alkali; assay type: physicochemical; conditions: e.g., sodium hydroxide or potassium hydroxide, then gradually decreased
From the text: Such changes continuously occur over several hours and the higher an alkali concentration is, the greater change is. It is, therefore, extremely difficult to find out such a condition that an enzyme reaction is stopped without any influence upon absorption of coenzyme, when an aqueous solution of a strong alkali having no buffer action is employed.

[2] = Stability of absorption intensity of coenzyme at 340nm after dissolution in CAPS buffer solution; assay type: physicochemical; conditions: for O.D. change at 340nm (change in absorbance per hour, 1 cm cell): coenzyme 1.1 × 10^-4 M, over 3 hours
Method: 1) Coenzyme dissolved in the indicated buffer solution to 1.1 ×
2) Change in absorbance per hour given when measured by the use of a cell
with optical path length of 1 cm.
3) Changes in absorbance of ±0.002A or less over 3 hours immediately
after dissolution are expressed as "not changed".

CPK = experiment: Inhibitory action of CAPS buffer solution on dehydrogenase reaction, serum CPK diagnostic kit; assay type: biochemical, human
Method: CPK in serum is increased along with injury of skeletal muscle or heart muscle. For determination of CPK activity, creatine phosphoric acid and adenosine-5'-diphosphate (hereinafter referred to as ADP) are employed as substrates and further hexokinase (hereinafter referred to as HK), glucose, glucose-6-phosphate dehydrogenase (hereinafter referred to as G6PDH) and NADP are added to the reaction medium. By the action of CPK, ADP is converted to adenosine-5'-triphosphate (hereinafter referred to as ATP), while glucose in the reaction medium is converted to glucose-6-phosphate by the action of the ATP and HK. Thereafter, the glucose-6-phosphate is converted to 6-phosphogluconic acid by the action of G6PDH and NADP and NADP is converted to a reduced form of NADP (hereinafter referred to as NADPH), along with the conversion, which results in increased absorbance at 340nm. The ATP amount produced by CPK is stoichiometrically equal to that of NADP to be reduced.
(§1) Four enzymes which are widely employed for examination in clinical diagnosis among various serum enzymes, were tested on the inhibitory actions by CAPS buffer solution. […]

GOT = experiment: Inhibitory action of CAPS buffer solution on dehydrogenase reaction, serum GOT diagnostic kit; assay type: biochemical, human
From the text: (§2) For measuring serum GOT or GPT activity, the reaction can be carried out through addition of malic dehydrogenase to the reaction medium in case of GOT and LDH in case of GPT, together with the enzyme substrates such as α-ketoglutaric acid and L-aspartic acid for the former enzyme or α-ketoglutaric acid and L-alanine for the latter, and a reduced form of NAD (hereinafter referred to as NADH) in either case. Oxaloacetic acid derived from aspartic acid with GOT (in case of GPT, pyruvic acid derived from alanine, the GPT case being hereinafter referred to in the parenthesis) is converted to malic acid (lacetic acid) with malic dehydrogenase (lactic dehydrogenase) and NADH concurrently with oxidation of NADH to NAD, which results in decrease of absorbance at 340nm arising from NADH. An amount of the oxaloacetic acid (pyruvic acid) produced by GOT (GPT) is stoichiometrically equal to that of the NADH to be oxidized and a GOT (GPT) activity can be, therefore, determined from an oxidized amount of NADH which is obtained from an absorbance decrease at 340nm.
as §1

ALD = experiment: Inhibitory action of CAPS buffer solution on dehydrogenase reaction, serum ALD diagnostic kit; assay type: biochemical, human
From the text: In measuring ALD activity, one can carry out by adding to a reaction medium fructose-1,6-diphosphate which is a substrate, togethe with triose phosphate isomerase (hereinafter referred to as TMI) and glycerol-1-phosphate dehydrogenase (hereinafter referred to as GDH). In this system, the products by ALD are converted to dioxyacetone phosphoric acid, which is then converted to glycerol-1-phosphate by the action of GDH and NADH. NADH is simultaneously oxidized to NAD. Hydrolysis of 1 mole of fructose-1,6-diphosphate with ALD results in oxidation of 2 moles of NADH.
Four enzymes which are widely employed for examination in clinical diagnosis among various serum enzymes, were tested on the inhibitory actions by CAPS buffer solution. Some of our experiments are summarized in the Table 1 wherein changes in absorbance at 340nm during the whole process of the reaction are automatically recorded and expressed in terms of inhibition degree by adding serum to a reaction mixture for proceeding the reaction and then adding thereto CAPS buffer solution with varied concentrations, pH values and amounts added.
1) Diagnostic kits available from Calbiochem U.S.A., used for measuring
GOT, GPT and CPK and diagnostic kits available from Boeringer-Manheim,
West Germany, used for measuring ALD, standard human serum
(Caltrol-Abnormal) available from Calbiochem used for serum. […]

GPT = experiment: Inhibitory action of CAPS buffer solution on dehydrogenase reaction, serum GPT diagnostic kit; assay type: biochemical, human
From the text: as §2, §1

[3] = Influence of alkaline buffer solutions on absorption intensity of coenzyme at 340nm; assay type: physicochemical; conditions: for Absorption of NAD at 340nm: added to an enzyme reaction mixture containing EDTA
From the text: Such increasing action on absorption of NAD may continuously vary with the lapse of time and it is, therefore, difficult to correct influence caused therefrom.

dehydrogenase reaction = experiment: Aqueous alkali solution of p-chloromercurybenzoate as stopping agent for dehydrogenase reaction; assay type: biochemical; conditions: reaction mixture of commercially available diagnostic kits
From the text: It is also reported in the art that an aqueous alkali solution of p-chloromercurybenzoate is applicable as a stopping agent for dehydrogenase reaction (E. Raabo, Scandinavian Journal of Clinical & Laboratory Investigation, 17, (1965), 265). […] Then, the prior solution seems to be of no practical use.

[4] = CAPS buffer solution 0.25M,pH12.5

SMILES: NC(=O)c1ccc[n+]([C@@H]2O[C@H](COP(=O)([O-])OP(=O)(O)OC[C@H]3O[C@@H](n4cnc5c(N)ncnc54)[C@H](O)[C@@H]3O)[C@@H](O)[C@H]2O)c1 [NAD, nicotinamide-adenine dinucleotide]
- Time to peak of absorption intensity at 340nm [1]: 10 to 20 min
- O.D. change at 340nm (change in absorbance per hour, 1 cm cell) ([2]; CAPS buffer solution 0.25M,pH12.0): ≤ 0.005 A/hr/cm
- O.D. change at 340nm (change in absorbance per hour, 1 cm cell) [2, 4]: ≤ 0.010 A/hr/cm
- O.D. change at 340nm (change in absorbance per hour, 1 cm cell) ([2]; CAPS buffer solution 0.33M,pH11.5): ≤ 0.005 A/hr/cm
- O.D. change at 340nm (change in absorbance per hour, 1 cm cell) ([2]; CAPS buffer solution 0.5M,pH11.5): ≤ 0.010 A/hr/cm
- Stability of coenzyme in CAPS buffer solution ([2]; concentration 0.33M or more or pH 12 or higher): somewhat reduced

SMILES: NC(=O)c1ccc[n+]([C@@H]2O[C@H](COP(=O)([O-])OP(=O)(O)OC[C@H]3O[C@@H](n4cnc5c(N)ncnc54)[C@H](OP(=O)(O)O)[C@@H]3O)[C@@H](O)[C@H]2O)c1 [NADP, nicotinamide adenine dinucleotide phosphate]
- Time to peak of absorption intensity at 340nm [1]: 10 to 20 min
- O.D. change at 340nm (change in absorbance per hour, 1 cm cell) [2, 4]: ≤ 0.005 A/hr/cm
- Stability of coenzyme in CAPS buffer solution ([2]; pH 12.5 or higher): also reduced

SMILES: [Na+].[OH-] [NaOH soln., sodium hydroxide]
- Complete inhibition concentration with aqueous NaOH soln. (Final concentration), CPK (CPK): > 0.1 N
- Complete inhibition concentration with aqueous NaOH soln. (Final concentration), GOT (GOT): > 0.15 N
- Complete inhibition concentration with aqueous NaOH soln. (Final concentration), ALD (ALD): > 0.1 N
- Complete inhibition concentration with aqueous NaOH soln. (Final concentration), GPT (GPT): > 0.15 N

SMILES: N=C(N)NCCC[C@H](N)C(=O)O [arginine buffer solution, arginine]
- Absorption of NAD at 340nm [3]: increase in absorption of NAD at 340nm

SMILES: NCC(=O)O [glycine buffer solution, glycine]
- Absorption of NAD at 340nm [3]: increase in absorption of NAD at 340nm

SMILES: N=C(N)N [guanidine buffer solution, guanidine]
- Absorption of NAD ([3]; at the concentration and pH value to inhibit an action of an enzyme): may increase absorption of NAD

SMILES: O=C(O)c1cc[c]([Hg][Cl])cc1 [p-chloromercurybenzoate]
- Inhibition of dehydrogenase reaction (dehydrogenase reaction): only partial inhibition
